Laboratory results: patent US9427426B2 (priority 2008, dated 2016)
Values joined by “and” are separate entries in the source; they are usually repeats but may differ in a detail not shown here. Equal entries are not always repeated.

Legend:
[1] = tested on: rats intoxicated with lead (lead acetate); test: Example 5: erdosteine prophylaxis per os plus i.v. treatment in lead intoxication; format: in vivo, rats Wistar; design: RBC / ALT / Hct / MCH / Hb / WBC / Urea / Uric acid / AST: unit not given here
Method: The experiment has been structured for subjects that at a certain moment might be at higher risk to be intoxicated, for professional or other reasons. After intoxication the animals have been treated i.v.
Experiment has been carried out in parallel with example 3. Whatever not specified is identical with example 3.
Lot 14 One lot of 30 rats Wistar (15 males and 15 females) have been introduced in the experiment.
At day −2, day −1 and day 0 the animals have been administered 300 mg/kg erdosteine per os. At day 0, four hours after administration of erdosteine, the animals have been intoxicated with lead as described in example 3. After lead intoxications animals have been treated with erdosteine 350 mg/kg with the same protocol as described in example 3. […] Results have been compared with lot 2 since the experiments were carried out in parallel and results can be compared.

[2] = tested on: rats intoxicated with lead (lead acetate); test: Example 2: erdosteine i.v. vs NAC i.v. in rats intoxicated with lead; format: in vivo, Wistar rats; conditions: for Mortalitaty total / Mortality in percent: Pb intoxicated (lead acetate 4665 mg/kg per os), 35 animals/lot; for Anatomical pathology: lesions / Pb in urine, Pb mean values / Creatinine mean values / Haematocrit mean values / Haemoglobin mean values / Leucocytes mean values / Urea mean values / Uric acid mean value / erythrocytes mean values: Pb intoxicated; for Creatinine mean values / Haematocrit mean values / Haemoglobin mean values / Leucocytes mean values / Urea mean values / Uric acid mean value / erythrocytes mean values: survivors after 7 days
Method: The animals have been randomly divided in 11 lots.
3. […] NAC has been dissolved in bidistilled water.
4. […] Erdosteine has been solubilized in bidistilled water and sodium hydrogen carbonate equimolar, the resulting solution being administered in volume of 10 ml/kg. Preliminarily we tested the different molar ratios erdosteine/sodium hydrogen carbonate in a range between 0.5:1 and 1.5:1 and the volume to be solubilized. […] Animals Monitoring:
Mortality has been recorded. […] Few animals have been collected urine eliminated spontaneously for Pb—Hg analysis. Animals have been sacrificed under general anesthesia with ether. 6 animals of each group (3 males and 3 females) have been randomly selected for macroscopic and microscopic anatomic-pathological examination.

[3] = tested on: rat intoxicated with lead (lead acetate); test: Example 3: erdosteine i.v. vs BAL+EDTA (TT) and association in rats intoxicated with lead; conditions: erdosteine 350 mg/kg i.v.
Source text: The animals have been randomly divided in 6 lots.
2. […] Dosage administered is similar to the maximum possible dosage in man.
4. Erdosteine has been administered first, immediately after intoxication, followed rapidly by BAL and then EDTA by more operators in sequence, in order to simulate the situation in man when it is possible to administer i.v. in perfusion and at the same time i.m.
Mortality has been recorded. […] After 7 days urine have been taken through trans-vesica punction.
Analysis of mortality have been made using Chi square test.
Results with p<0.05 have been considered statistically significant.
Biochemical tests have been made with Refloton 2000, hematological tests with Hemastar 4, urine summary with Urilux, Pb in urine with GC-MS Varian

rats = test: Example 3: evaluation of erdosteine formulation toxicity i.v. (lots 10-13); format: in vivo, Wistar rats; conditions: 10 animals
Method: Have been introduced 4 lot of 10 animals (5 males and 5 females) as follows: • Lot 10—intoxicated with 3500 mg/kg erdosteine i.v., 4.37 g erdosteine+1.48 g sodium hydrogen carbonate dissolved in 25 ml, administrated 2 ml/100 g of animal weight • Lot 11—intoxicated with 4000 mg/kg erdosteine i.v. as in lot 10, administrated 2.28 ml/100 g of animal weight • Lot 12—intoxicated with 4500 mg/kg erdosteine i.v. 4.5 g dissolved in 20 ml, administrated 2 ml/100 g of animal weight. Dissolution volume was choose in order to keep a similar injection volume. • Lot 13—intoxicated with 5500 mg/kg erdosteine i.v. as in lot 12, administrated 2.44 ml/100 g of animal weight Statistical Analysis
It has been evaluated toxicity of formula 350 mg erdosteine+118 mg sodium hydrogen carbonate (formula that has shown the best stability data).

[4] = lot 14: erdosteine 300 mg/kg per os at day -2, -1, 0, then lead acetate 4665 mg/kg per os and erdosteine 350 mg/kg i.v. once a day for 7 days, 30 rats
[5] = lot 14 survivors day 7, prophylaxis per os + Pb intoxication + erdosteine 350 mg/kg i.v.
[6] = lot 14 day 0 before intoxication, after erdosteine 300 mg/kg per os at day -2, -1, 0
[7] = ERDO1 = erdosteine 350 mg/kg i.v. or NAC 114 mg/kg i.v. once a day for 7 days
[8] = ERDO2 = erdosteine 175 mg/kg i.v. once a day for 7 days
[9] = ERDO1 = erdosteine 350 mg/kg i.v. or NAC 114 mg/kg i.v. once a day
[10] = ERDO2 = erdosteine 175 mg/kg i.v. once a day
[11] = Pb intoxicated (lead acetate 4665 mg/kg per os), BAL 25.2 mg/kg + EDTA 30 mg/kg i.m. (TT) or both, once a day for 7 days, 30 animals/lot
[12] = survivors after 7 days, Pb intoxicated, TT (BAL+EDTA i.m.) or both
[13] = survivors after 7 days, Pb intoxicated, TT (BAL+EDTA i.m.) or both, listed as Erdosteine
[14] = urine at the end of period (7 days), Pb intoxicated, TT or both
[15] = 3500 mg/kg erdosteine i.v. (lot 10)
[16] = 4000 mg/kg erdosteine i.v. (lot 11)
[17] = 4500 mg/kg erdosteine i.v. (lot 12), solution not perfectly clear
[18] = 5500 mg/kg erdosteine i.v. (lot 13), solution not perfectly clear

**Q.** Which results are given for `O=C(O)CSCC(=O)NC1CCSC1=O` (stereo not shown) [erdosteine, Erdosteine]?
**A.** Mortality % [1, 4]: 20%; Total mortality [1, 4]: 6/30 ^2; ALT [1, 5]: 165.4^1,2; AST [1, 5]: 48.9^1,2; Hb [1, 5]: 17.12; Hct [1, 5]: 43.81; MCH [1, 5]: 23.12; PLT [1, 5]: 605; RBC [1, 5]: 7.446; Urea [1, 5]: 62.2^1,2; Uric acid [1, 5]: 2.71; WBC [1, 5]: 6.98; ALT [1, 6]: 166.2; AST [1, 6]: 36.2; Hb [1, 6]: 19.96; Hct [1, 6]: 47.45; MCH [1, 6]: 25.12; PLT [1, 6]: 793; RBC [1, 6]: 7.93; Urea [1, 6]: 54.86; Uric acid [1, 6]: 1.95; WBC [1, 6]: 4.90; Mortalitaty total [2, 7]: 5 ^1, 2; Mortality in percent [2, 7]: 14.3%; Mortalitaty total [2, 8]: 10 ^1, 2; Mortality in percent [2, 8]: 28.6%; Anatomical pathology: lesions [2, 7]: less important damages; Pb in urine, Pb mean values [2, 7]: 15.9 mg/L; Anatomical pathology: lesions [2, 8]: did not improve lesions; Pb in urine, Pb mean values [2, 8]: 13 mg/L; Creatinine mean values [2, 9]: 0.49 ^1, 2 mK/dl; Haematocrit mean values [2, 9]: 37.21 ^3; Haemoglobin mean values [2, 9]: 15.71 ^3 g/dl; Leucocytes mean values [2, 9]: 11.36 ^3; Urea mean values [2, 9]: 48.95 ^1, 2, 3 mg/dl; Uric acid mean value [2, 9]: 2.28 ^4 mg/dl; erythrocytes mean values [2, 9]: 7.01 ^3 *10^6/mm^3; Creatinine mean values [2, 10]: 0.46 ^1, 2 mK/dl; Haematocrit mean values [2, 10]: 37.7 ^3; Haemoglobin mean values [2, 10]: 15.95 ^3 g/dl; Leucocytes mean values [2, 10]: 14.35 ^3; Urea mean values [2, 10]: 54.4 ^1, 2 mg/dl; Uric acid mean value [2, 10]: 1.76 ^1, 2 mg/dl; erythrocytes mean values [2, 10]: 7.07 ^3 *10^6/mm^3; Mortality % [3, 11]: 37%; Total mortality [3, 11]: 11/30 and 11/30 ^1; Renal aggression (urine summary), in words ([3]; Pb intoxicated, TT or both): improvement compared with TT; Pb in urine of survivors at the end of period, mean values ([3]; Pb intoxicated, TT or both, once a day for 7 days): 164.6 mg/L; ALT [3, 12]: 159^2; AST [3, 12]: 57.2^3; Hb [3, 12]: 16.98; Hct [3, 12]: 42.9; MCH [3, 12]: 23.46; PLT [3, 12]: 574; RBC [3, 12]: 7.156; Urea [3, 12]: 69.4^3; Uric acid [3, 12]: 2.632; WBC [3, 12]: 6.16; ALT [3, 13]: 159^2,3; AST [3, 13]: 57.2; Hb [3, 13]: 16.98^3; PLT [3, 13]: 574^3; RBC [3, 13]: 7.156^1,3; Urea [3, 13]: 68.4; WBC [3, 13]: 6.16^3; Urine summary: Bil. [3, 14]: 3 mg/dL; Urine summary: Chet [3, 14]: 10 mg/dL; Urine summary: Density [3, 14]: 1020; Urine summary: Erythrocyte [3, 14]: 100 µL⁻¹; Urine summary: Glucose [3, 14]: 50 mg/dL; Urine summary: Leuc [3, 14]: 28 µL⁻¹; Urine summary: Prot. [3, 14]: 90 mg/dL; Urine summary: UBG [3, 14]: 1 mg/dL; Urine summary: pH [3, 14]: 6.5; Mortality % (rats; [15]): 10%; Total mortality (rats; [15]): 1/10; Mortality % (rats; [16]): 40%; Total mortality (rats; [16]): 4/10; Mortality % (rats; [17]): 70%; Total mortality (rats; [17]): 7/10; Mortality % (rats; [18]): 100%; Total mortality (rats; [18]): 10/10
